Test results: PubChem BioAssay (NCI)
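Tested at 5 concentrations; 48 h exposure; 96-well plates; endpoints linearly interpolated, else capped at highest concentration. TGI marks complete inhibition of growth.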

Key:
Experiment in all cases: growth of human tumour cells (NCI), 48 h
OVCAR-8 ovarian = system: OVCAR-8 ovarian
HT29 colon = system: HT29 colon
ACHN renal = system: ACHN renal
NCI-H460 lung = system: NCI-H460 lung
A498 renal = system: A498 renal
SF-295 CNS = system: SF-295 CNS
COLO 205 colon = system: COLO 205 colon
KM12 colon = system: KM12 colon
HOP-62 NSCLC = system: HOP-62 NSCLC
OVCAR-4 ovarian = system: OVCAR-4 ovarian
HCT-116 colon = system: HCT-116 colon
RXF 393 renal = system: RXF 393 renal
OVCAR-3 ovarian = system: OVCAR-3 ovarian
TK-10 renal = system: TK-10 renal
IGROV1 ovarian = system: IGROV1 ovarian
SF-268 CNS = system: SF-268 CNS
SF-539 CNS = system: SF-539 CNS
CAKI-1 renal = system: CAKI-1 renal
SK-MEL-2 melanoma = system: SK-MEL-2 melanoma
EKVX NSCLC = system: EKVX NSCLC

Structure (SMILES)	TGI (OVCAR-8 ovarian)	TGI (HT29 colon)	TGI (ACHN renal)	TGI (NCI-H460 lung)	TGI (A498 renal)	TGI (SF-295 CNS)	TGI (COLO 205 colon)	TGI (KM12 colon)	TGI (HOP-62 NSCLC)	TGI (OVCAR-4 ovarian)	TGI (HCT-116 colon)	TGI (RXF 393 renal)	TGI (OVCAR-3 ovarian)	TGI (TK-10 renal)	TGI (IGROV1 ovarian)	TGI (SF-268 CNS)	TGI (SF-539 CNS)	TGI (CAKI-1 renal)	TGI (SK-MEL-2 melanoma)	TGI (EKVX NSCLC)
CC(C)(C)C(=O)CP(=O)(O)O	> 100 µM	> 100 µM	> 100 µM	> 100 µM	> 100 µM	> 100 µM	> 100 µM	> 100 µM	> 100 µM	> 100 µM	> 100 µM	> 100 µM	> 100 µM	> 100 µM	> 100 µM	> 100 µM	> 100 µM	> 100 µM	> 100 µM	> 100 µM
OC(c1cc(-c2ccc(Cl)cc2)nc2ccccc12)C1CCCCN1 (stereo not given)	5.28 µM	3.82 µM	4.1 µM	4.76 µM	3.54 µM	3.67 µM	3.19 µM	5.42 µM	3.13 µM	5.11 µM	3.74 µM	0.315 µM	3.98 µM	9.85 µM	–	4.51 µM	3.52 µM	6.44 µM	–	4.74 µM
C/C=C(\C)C(=O)OC1C(C)=C2C(C1OC(=O)CCCC)C(C)(OC(C)=O)CC(OC(=O)CCCC)C1(O)C2OC(=O)C1(C)O (stereo not given)	> 100 µM	9.72 µM	> 100 µM	> 100 µM	> 100 µM	> 100 µM	2.58 µM	> 42.5 µM	3.67 µM	> 100 µM	2.09 µM	> 100 µM	2.62 µM	> 100 µM	> 100 µM	> 100 µM	> 100 µM	> 92.2 µM	3.96 µM	> 100 µM
C[n+]1c2ccccc2c(NC(CS)C(=O)O)c2ccccc21 (stereo not given)	61.2 µM	> 100 µM	> 100 µM	> 100 µM	53 µM	77.7 µM	> 100 µM	64.9 µM	73.5 µM	> 100 µM	30.7 µM	60.7 µM	71.9 µM	> 100 µM	> 100 µM	70.2 µM	44 µM	97.2 µM	89.7 µM	> 100 µM
Nc1ccc(S(=O)(=O)Nc2ccc(Nc3c4ccccc4nc4ccccc34)cc2)cc1	10 µM	5.4 µM	0.149 µM	2.11 µM	1.14 µM	1.03 µM	14.9 µM	4.59 µM	0.0805 µM	17.1 µM	15.6 µM	13.7 µM	4.57 µM	9.55 µM	19.7 µM	13.8 µM	0.362 µM	0.517 µM	15.9 µM	14.7 µM
O=C(O)NCC1CCCCC1 (tested in a mixture with another compound)	31.7 µM	66.6 µM	48.1 µM	26.1 µM	34.1 µM	50.3 µM	–	29.7 µM	33.8 µM	> 100 µM	88.7 µM	45.9 µM	19.8 µM	> 100 µM	23.3 µM	38.4 µM	–	> 100 µM	30.9 µM	> 100 µM
O=C(NC1C=Nc2ccc([N+](=O)[O-])cc2NC1=O)c1cc(Cl)cc([N+](=O)[O-])c1 (stereo not given)	> 100 µM	> 100 µM	> 100 µM	> 100 µM	> 100 µM	> 100 µM	> 100 µM	> 100 µM	> 100 µM	> 100 µM	> 100 µM	> 100 µM	–	> 100 µM	> 100 µM	> 100 µM	> 100 µM	> 100 µM	> 100 µM	> 100 µM
